Consider 13 molecules from article PMC7883873, “Discovery of New Catalytic Topoisomerase II Inhibitors for Anticancer Therapeutics” (Frontiers in Oncology, 2021).

The target in series [1] is T1, TOP2A (Homo sapiens, UniProt P11388). Put plainly: Relaxation and K-DNA decatenation assays of candidates and T60 derivatives (SAR). The class given is biochemical. More on the design: full-length human TOP2A and TOP2B protein (TopoGEN and Inspiralis respectively); purchased TopoGEN TG1001 (human TOP2 assay kit). The settings on record: compared with T60. On the procedure: (§1) The human TOP2 assay kit (#TG1001, TopoGEN, Buena Vista, CO) and TOP2B (HTB205, Inspiralis, UK) were used for K-DNA decatenation assays. […] The reaction was incubated at 37C for 2 h after which 4 µl stop solution (5× buffer is 5% Sarkosyl, 0.125% bromophenol blue, 25% glycerol) was added. The reaction was resolved by electrophoresis on a 0.8% agarose gel at 60 V and stained with 0.5 µg/ml ethidium bromide for 15 min. DNA bands were visualized using a gel imager (Gel Doc™ EZ System) and quantified using the Image Studio™ Lite Quantification Software.
(§2) The human TOP2A and TOP2B were used to perform DNA relaxation assays. […] The reaction was incubated at 37C for 2 h and stopped by adding 2 µl of 10% SDS and 1 µl of 250 mM of EDTA, followed by the addition of 50 µg/ml of proteinase K at 45 C for 1 h. The reaction was then resolved by electrophoresis on a 1% agarose gel at 80 V and stained with 0.5 µg/ml ethidium bromide for 15 min. DNA bands were visualized using a gel imager (Gel Doc™ EZ System) and quantified using the Image Studio™ Lite Quantification Software.

The target in series [2] is T2, TOP2A (431–1193) (Homo sapiens, UniProt P11388).
T2 construct: was incorporated with TOP2A (431–1193); made in house; host or cells: Escherichia coli BL21 co-expressing biotin ligase
Put plainly: Bio-Layer Interferometry (BLI) assay. Format: binding. The procedure:
BLI assays were performed as we previously reported ([33]). The direct and reversible interactions between small molecules and TOP2 protein were quantified by BLI using OctetRED (ForteBio, Bohemia, NY). Human TOP2A (431–1,193) was produced in situ with AviTag technology. The AviTag sequence ([…]) followed by a six-residue glycine serine linker (GSGSGS) was incorporated with TOP2A (431–1193). Escherichia coli BL21 containing both biotin ligase and TOP2A (431–1193) vectors were induced with 0.5 mM isopropyl-β-D-thiogalactopyranoside (IPTG) and biotin at 16C overnight. The bacteria were then lysed by sonication, and the resulting lysate was purified by immobilized metal ion affinity chromatography (IMAC) with nickel nitrilotriacetic acid (NiNTA) resin and cation-exchange chromatography (HiTrap SP). Purified TOP2A (431–1193) (50 μg/ml) was bound to the super-streptavidin sensors over 50 min at room temperature. The sensor was kept in an assay buffer [20 mM N-2-hydroxyethylpiperazine-N0 -2-ethanesulfonic acid (HEPES), 150 mM NaCl, 500 μM tris(2-carboxyethyl) phosphine (TCEP), and 1% dimethylsulfoxide (DMSO)], when small molecules were added. After 200 s, a wash buffer was used to flush the sensor plate for 100 s. BLI signal was recorded throughout the 300 s following the manufacture’s instruction from OctetRED (ForteBio, Bohemia, NY).

Series [3] has as its system K562 xenografts. Put plainly: K562 xenografts, intra-tumor polymeric paste. The settings on record: single 30 µl paste, 1% T60 or T633, 0.3% etoposide. The class given is in vivo, nude mice (Nu/Nu). On the procedure: The polymeric paste was prepared with 50% poly-DL-lactide-coglycolide (PLGA) and 50% PEG 300 (w/w) as we have reported ([57]). […] The density of the paste was determined to be 1.2 g/ml ( ± 3%). One million K562 cells were inoculated subcutaneously in bilateral flanks of nude mice (Nu/Nu). […] Tumor volumes were measured every three days and were calculated by length × width × depth × 0.5236. Mice were euthanized when tumor volumes reached 15% of body weight or weight loss >20% occurred. The remaining mice were euthanized after the control group was euthanized. All animal procedures were under the guidelines of the Canadian Council on Animal Care and were approved by the UBC Animal Care Committee (# A19-0256).

Series [4] deals with TOP2B (Homo sapiens, UniProt Q02880). As to the kind of experiment: DNA cleavage assay. The class given is biochemical. Particulars: 200 µM, buffer without ATP. More on the design: full-length human TOP2A and TOP2B protein (TopoGEN and Inspiralis respectively); purchased Inspiralis HTB205. On the procedure: (§3) The reactions were incubated in 37C for 30 min and stopped by adding 2 µl of 10% SDS and 1 µl of 250 mM of EDTA, followed by the addition of 50 µg/ml of proteinase K at 45C for 30 min. The reaction was then resolved by electrophoresis on a 1% agarose gel containing […] ethidium bromide in TAE buffer at 60 V. DNA bands were visualized using a gel imager (Gel Doc™ EZ System) and quantified by using the Image Studio™ Lite Quantification Software.

Series [5] addresses T1, TOP2A. As to the kind of experiment: DNA cleavage assay. Particulars: 200 µM, buffer without ATP. Format: biochemical. Also noted: full-length human TOP2A and TOP2B protein (TopoGEN and Inspiralis respectively); purchased TopoGEN TG1001 (human TOP2 assay kit). The procedure:
as §3

Series [6] concerns salmon sperm DNA. As to the kind of experiment: Ethidium bromide displacement assay. The class given is binding. Particulars: increasing doses; 100 µg/ml DNA, 2 µg/ml ethidium bromide. The procedure: Ethidium bromide displacement assay was performed as previously described ([49], [50]) using Amsacrine (mAMSA) as a positive control. In a 20 µl reaction, compounds were mixed with 100 µg/ml of salmon sperm DNA and 2 µg/ml of ethidium bromide in a fluorescence buffer containing 10 mM HEPES, pH 7.9, 100 mM KCl, 5 mM MgCl2, 0.1 mM EDTA, pH 8.0. Triplicate reactions were subjected to fluorescence emission of 590 nm and excitation of 535 nm. Signals were detected by using the Multimode Microplate Reader, Infinite® F500.

The target of series [7] is T1, TOP2A. As to the kind of experiment: K-DNA decatenation assay. Format: biochemical. More on the design: full-length human TOP2A and TOP2B protein (TopoGEN and Inspiralis respectively); purchased TopoGEN TG1001 (human TOP2 assay kit). The settings on record: Figure 3A. On the procedure:
as §1

In series [8] the target is T1, TOP2A. Put plainly: DNA relaxation assay (supercoiled pHOT-1 plasmid). Particulars: Figure 3B. More on the design: full-length human TOP2A and TOP2B protein (TopoGEN and Inspiralis respectively); purchased TopoGEN TG1001 (human TOP2 assay kit). The class given is biochemical. The procedure:
as §2

The target in series [9] is TOP2A full-length (Homo sapiens, UniProt P11388 1-1531). Put plainly: EMSA; 2 uM protein, 300 nM DNA, 3 mM Mg2+, no inhibitor; 20 mM HEPES-NaOH pH 7.4, 2 mM DTT, 3 mM MgCl2, 0.05% NP-40, protease inhibitors, 0.1 ug poly[dI:dC] in 20 ul, 30 min at 37 C; 4% native gel in 0.5x TBE. Particulars: protein: commercial; label: IRDye700; blunt; self-complementary strand, 2 copies. (In general: In EMSA bound probe runs differently from free probe, usually more slowly.)

In series [10] the target is TOP2B full-length (Homo sapiens, UniProt Q02880 1-1626). The description is as above. The settings on record: protein: commercial; label: IRDye700; blunt; self-complementary strand, 2 copies.
Series [11] addresses TOP2A (431-1193) (Homo sapiens, UniProt P11388 431-1193). Put plainly: EMSA; 30 uM protein, 300 nM DNA, 3 mM Mg2+, no inhibitor; 20 mM HEPES-NaOH pH 7.4, 2 mM DTT, 3 mM MgCl2, 0.05% NP-40, protease inhibitors, 0.1 ug poly[dI:dC] in 20 ul, 30 min at 37 C; 4% native gel in 0.5x TBE. Particulars: protein: recombinant; (NiNTA purified); label: IRDye700; blunt; self-complementary strand, 2 copies.

T2 sequence (P11388 431-1193): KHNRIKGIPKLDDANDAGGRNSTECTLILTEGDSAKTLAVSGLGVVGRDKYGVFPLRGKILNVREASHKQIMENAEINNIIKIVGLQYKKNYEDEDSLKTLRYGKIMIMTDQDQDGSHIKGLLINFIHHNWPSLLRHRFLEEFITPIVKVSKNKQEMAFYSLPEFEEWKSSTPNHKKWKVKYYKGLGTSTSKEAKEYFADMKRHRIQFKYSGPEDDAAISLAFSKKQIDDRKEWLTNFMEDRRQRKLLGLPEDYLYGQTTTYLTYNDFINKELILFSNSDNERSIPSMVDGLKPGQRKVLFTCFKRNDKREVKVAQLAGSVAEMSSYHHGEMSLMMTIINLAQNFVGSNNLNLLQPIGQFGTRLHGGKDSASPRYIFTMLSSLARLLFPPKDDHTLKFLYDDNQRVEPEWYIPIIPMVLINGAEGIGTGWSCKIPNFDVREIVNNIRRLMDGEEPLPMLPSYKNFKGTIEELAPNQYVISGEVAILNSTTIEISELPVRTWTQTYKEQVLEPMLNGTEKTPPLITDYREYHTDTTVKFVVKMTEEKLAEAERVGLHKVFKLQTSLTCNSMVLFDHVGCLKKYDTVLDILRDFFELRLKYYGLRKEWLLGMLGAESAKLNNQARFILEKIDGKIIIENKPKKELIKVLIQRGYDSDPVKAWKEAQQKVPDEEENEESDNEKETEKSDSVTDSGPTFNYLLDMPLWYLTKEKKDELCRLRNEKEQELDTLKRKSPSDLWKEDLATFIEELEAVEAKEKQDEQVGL
T1 sequence (P11388 whole entry): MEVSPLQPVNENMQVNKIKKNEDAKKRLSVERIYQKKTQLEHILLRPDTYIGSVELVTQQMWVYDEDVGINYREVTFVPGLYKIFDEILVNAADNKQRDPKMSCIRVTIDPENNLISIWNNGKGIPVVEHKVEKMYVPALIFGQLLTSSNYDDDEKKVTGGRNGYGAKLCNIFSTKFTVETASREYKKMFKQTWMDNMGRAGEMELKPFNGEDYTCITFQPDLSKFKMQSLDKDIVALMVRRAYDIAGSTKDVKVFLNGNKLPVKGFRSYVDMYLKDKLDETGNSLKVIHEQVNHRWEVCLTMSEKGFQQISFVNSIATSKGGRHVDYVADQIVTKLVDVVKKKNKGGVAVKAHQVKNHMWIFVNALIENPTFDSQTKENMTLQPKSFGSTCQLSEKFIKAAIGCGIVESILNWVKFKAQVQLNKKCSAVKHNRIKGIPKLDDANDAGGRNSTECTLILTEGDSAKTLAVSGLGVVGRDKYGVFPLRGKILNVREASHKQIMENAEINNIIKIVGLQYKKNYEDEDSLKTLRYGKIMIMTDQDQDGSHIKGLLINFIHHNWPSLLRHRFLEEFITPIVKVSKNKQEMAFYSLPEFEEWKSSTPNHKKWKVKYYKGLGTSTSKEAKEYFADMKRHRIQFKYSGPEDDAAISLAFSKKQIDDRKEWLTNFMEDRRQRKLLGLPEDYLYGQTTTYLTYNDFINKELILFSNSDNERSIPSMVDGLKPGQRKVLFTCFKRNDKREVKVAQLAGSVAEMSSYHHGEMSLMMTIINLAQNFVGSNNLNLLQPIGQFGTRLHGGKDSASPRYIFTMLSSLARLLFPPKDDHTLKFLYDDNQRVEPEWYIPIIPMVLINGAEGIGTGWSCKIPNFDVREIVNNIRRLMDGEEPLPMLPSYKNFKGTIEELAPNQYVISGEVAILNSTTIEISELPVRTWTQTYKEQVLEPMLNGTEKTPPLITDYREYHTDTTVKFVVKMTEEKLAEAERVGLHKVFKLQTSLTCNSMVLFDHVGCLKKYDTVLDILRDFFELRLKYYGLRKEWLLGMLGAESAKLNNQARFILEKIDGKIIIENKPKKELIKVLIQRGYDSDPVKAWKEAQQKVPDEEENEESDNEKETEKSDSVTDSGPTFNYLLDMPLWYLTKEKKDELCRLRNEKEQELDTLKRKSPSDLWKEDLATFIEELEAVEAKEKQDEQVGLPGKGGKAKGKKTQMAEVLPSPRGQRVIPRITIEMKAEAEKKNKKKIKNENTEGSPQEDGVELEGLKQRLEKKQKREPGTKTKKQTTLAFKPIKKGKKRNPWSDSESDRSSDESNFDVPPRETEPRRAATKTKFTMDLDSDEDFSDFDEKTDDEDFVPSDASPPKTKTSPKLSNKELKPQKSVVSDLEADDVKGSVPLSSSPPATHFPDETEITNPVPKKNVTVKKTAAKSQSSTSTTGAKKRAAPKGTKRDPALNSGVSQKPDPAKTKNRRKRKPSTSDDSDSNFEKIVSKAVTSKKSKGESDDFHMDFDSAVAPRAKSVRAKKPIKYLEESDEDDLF
Sequence of TOP2B full-length (Q02880 whole entry): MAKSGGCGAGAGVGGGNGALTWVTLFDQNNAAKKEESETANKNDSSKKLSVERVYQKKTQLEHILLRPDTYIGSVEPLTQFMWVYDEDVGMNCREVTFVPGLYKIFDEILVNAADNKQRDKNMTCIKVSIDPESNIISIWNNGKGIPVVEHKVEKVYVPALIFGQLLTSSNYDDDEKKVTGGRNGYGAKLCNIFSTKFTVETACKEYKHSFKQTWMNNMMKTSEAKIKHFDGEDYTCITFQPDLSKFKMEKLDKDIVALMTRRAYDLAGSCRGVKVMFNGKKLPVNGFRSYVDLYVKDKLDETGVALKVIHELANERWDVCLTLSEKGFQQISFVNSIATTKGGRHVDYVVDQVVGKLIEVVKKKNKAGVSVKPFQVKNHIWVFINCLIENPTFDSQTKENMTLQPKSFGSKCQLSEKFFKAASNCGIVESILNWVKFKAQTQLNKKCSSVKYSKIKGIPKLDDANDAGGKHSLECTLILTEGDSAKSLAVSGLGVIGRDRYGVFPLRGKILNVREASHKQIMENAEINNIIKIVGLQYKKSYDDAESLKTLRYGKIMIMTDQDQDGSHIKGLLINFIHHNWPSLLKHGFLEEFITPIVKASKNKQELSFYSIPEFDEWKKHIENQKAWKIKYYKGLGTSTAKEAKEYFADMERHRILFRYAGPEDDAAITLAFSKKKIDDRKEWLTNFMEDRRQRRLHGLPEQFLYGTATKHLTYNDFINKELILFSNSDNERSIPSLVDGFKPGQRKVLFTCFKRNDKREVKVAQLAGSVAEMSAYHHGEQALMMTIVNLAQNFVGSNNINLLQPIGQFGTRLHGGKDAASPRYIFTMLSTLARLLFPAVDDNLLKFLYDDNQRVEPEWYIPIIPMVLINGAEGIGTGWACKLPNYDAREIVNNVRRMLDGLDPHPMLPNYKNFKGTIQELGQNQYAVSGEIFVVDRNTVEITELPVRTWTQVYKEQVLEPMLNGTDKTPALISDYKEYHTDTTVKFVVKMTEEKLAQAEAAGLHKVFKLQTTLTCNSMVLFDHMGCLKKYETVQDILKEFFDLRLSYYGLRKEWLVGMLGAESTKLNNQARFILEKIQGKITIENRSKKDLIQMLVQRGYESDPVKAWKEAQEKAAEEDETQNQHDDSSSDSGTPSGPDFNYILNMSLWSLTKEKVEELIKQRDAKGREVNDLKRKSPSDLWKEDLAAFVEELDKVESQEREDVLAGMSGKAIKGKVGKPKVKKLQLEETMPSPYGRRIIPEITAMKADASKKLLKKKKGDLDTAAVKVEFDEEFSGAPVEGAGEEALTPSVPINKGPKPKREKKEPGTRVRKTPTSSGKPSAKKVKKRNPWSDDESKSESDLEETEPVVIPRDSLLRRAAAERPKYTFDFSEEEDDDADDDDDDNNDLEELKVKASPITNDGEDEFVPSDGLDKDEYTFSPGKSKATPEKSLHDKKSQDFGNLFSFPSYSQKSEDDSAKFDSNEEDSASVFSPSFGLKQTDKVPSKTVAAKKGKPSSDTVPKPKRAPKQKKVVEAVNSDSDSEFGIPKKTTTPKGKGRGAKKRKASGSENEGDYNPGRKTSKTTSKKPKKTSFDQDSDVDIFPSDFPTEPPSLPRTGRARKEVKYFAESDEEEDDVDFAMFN
Sequence of TOP2B (Q02880 whole entry): as above
Sequence of TOP2A (431-1193) (P11388 431-1193): as the sequence (P11388 431-1193) above
Sequence of TOP2A full-length (P11388 whole entry): as the sequence (P11388 whole entry) above

Consider `O=C(Nc1ccc(Nc2ccccc2)cc1)c1ccccc1S` [T609], for which, in series [1], the “Activity on TOP2” value was “most active compound”. Still for that read-out and setting: the value for `O=C(Nc1ccc(Nc2ccccc2O)cc1)c1ccc[nH]c1=S` [T620] was “increased activity”. Still for that read-out and setting: the value for `O=C(Nc1ccc(Nc2ccc(O)cc2)cc1)c1ccc[nH]c1=S` [T625] was “increased activity”; that for `CN(C(=O)c1ccc[nH]c1=S)c1ccc(Nc2ccccc2)cc1` [T627] was “complete abolishment of T60 activity”; that for `Cc1cc(NC(=O)c2ccc[nH]c2=S)ccc1Nc1ccccc1` [T630] was “stronger activities than T60”.

Regarding `Cc1cc(Nc2ccccc2)ccc1NC(=O)c1ccc[nH]c1=S` [T633], the “Hill slope, BLI” value in series [2] (dose-response 0-50 μM) was determined as 5±1.5. Moreover, in series [2] (dose-response 0-50 μM, estimated), the Kd was 35 ± 3 µM. Moreover, in [2] (increasing concentrations), the “Binding to TOP2A (431–1193), BLI curves” value was “reversible and dose-response binding”. Further, the “Tumor growth at the end of two weeks” value in [3] is listed as “strongly inhibit tumor growth comparable to etoposide”. The “Activity on TOP2” value in series [1] is reported as “stronger activities than T60”. In the case of `O=C(Nc1ccc(Nc2ccccc2)cc1O)c1ccc[nH]c1=S` [T634], in series [1], the “Activity on TOP2” value is “stronger activities than T60”. Still for that read-out and setting: the same measure for `O=C(Nc1ccc(Nc2ccccc2)cc1)c1ccnnc1S` [T635]: “nearly inactive”; for `O=C(Nc1ccc(Nc2ccccc2)cc1)c1c[nH]cnc1=S` [T636]: “nearly inactive”. Consider `COc1cc([C@@H]2c3cc4c(cc3[C@@H](O[C@@H]3O[C@@H]5CO[C@@H](C)O[C@H]5[C@H](O)[C@H]3O)[C@H]3COC(=O)[C@H]23)OCO4)cc(OC)c1O` [etoposide], for which the “Tumor volumes versus vehicle group at the end of four weeks” value in series [3] was “statistically lower than the vehicle group”. Besides, in series [4], the “Induction of linear plasmid (DNA cleavage) with TOP2B” value was “induced detectable linear plasmid”. Also, the “Induction of linear plasmid (DNA cleavage) with TOP2A” value in series [5] is “induced detectable linear plasmid”.

Turning to `COc1cc(NS(C)(=O)=O)ccc1Nc1c2ccccc2nc2ccccc12` [m-AMSA, Amsacrine, reference compound], the “Fluorescence of ethidium bromide/DNA complex (DNA intercalation)” value in series [6] is “reduced”. ICRF193 [reference compound]: the “Inhibition of TOP2A mediated K-DNA decatenation” value in [7] is “inhibited”. Moreover, in [8], the “Inhibition of TOP2A activity changing supercoiled into relaxed plasmid DNA” value was “inhibited”.

B1: 5ZRF (dsDNA)
DNA 1: AGCCGAGCTGCAGCTCGGCT
DNA 2: AGCCGAGCTGCAGCTCGGCT
On to B1, for which the binding result in [9], in [10] and in series [11] was “binds” each time.

The term Kd denotes the equilibrium constant for the complex coming apart.
